The compounds below were run against T1, C5a receptor (Homo sapiens, UniProt P21730) (assay: standard assay of C5a receptor mediated calcium mobilization). Conditions: Table I; asterisk = tested in C5a receptor mediated calcium mobilization assay; read-out: Ca2+ Mob.
T1 construct: endogenous in cells; host or cells: U937 cells differentiated with 1 mM dibutyryl cAMP
T1 sequence (P21730 1-350): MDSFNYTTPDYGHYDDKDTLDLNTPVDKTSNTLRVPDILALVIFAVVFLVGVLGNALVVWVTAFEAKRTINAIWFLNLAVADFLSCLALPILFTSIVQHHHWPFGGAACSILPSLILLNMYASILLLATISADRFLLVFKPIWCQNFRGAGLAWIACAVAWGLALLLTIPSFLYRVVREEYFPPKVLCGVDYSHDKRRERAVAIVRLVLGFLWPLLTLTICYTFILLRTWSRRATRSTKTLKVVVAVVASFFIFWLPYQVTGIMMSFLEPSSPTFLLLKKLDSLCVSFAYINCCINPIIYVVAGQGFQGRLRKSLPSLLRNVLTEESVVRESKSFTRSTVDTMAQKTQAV
Format: cell-based
Procedure, shortened: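 U937 cells differentiated 48 hrs with 1 mM dibutyryl cAMP, loaded with Fluo-3 (10 μg/mL) and read by FLIPR fluorescence (ex 480/em 530). For antagonism, cells preincubated 1 h with 1 μM compound before 0.3 nM human recombinant C5a; activity scored as fold decrease in response versus C5a alone.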

Ki, < 1000 nM:
O=C(c1ccccc1-c1ccccc1)N(Cc1ccccc1)Cc1ccc(OC(F)F)cc1 [compound 151, N-benzyl-N-[4-(difluoromethoxy)benzyl]-1,1′-biphenyl-2-carboxamide]

Same assay, conditions: Table III; asterisk = tested in C5a receptor mediated calcium mobilization assay; read-out: Ca2+ Mob.

Ki, < 1000 nM:
COc1ccc2ccccc2c1C(=O)N(Cc1ccccc1)Cc1cc(C)c(O)c(C)c1 [compound 217, N-benzyl-N-(4-hydroxy-3,5-dimethylbenzyl)-2-methoxy-1-naphthamide]
COc1ccc2ccccc2c1C(=O)N(CCc1ccccc1)C1Cc2ccccc2C1 [compound 220, 2-Methoxy-naphthalene-1-carboxylic acid indan-2-yl-phenethyl-amide]
COc1ccc2ccccc2c1C(=O)N(Cc1ccc(C)cc1)C1Cc2ccccc2C1 [compound 223, 2-Methoxy-naphtlalene-1-carboxylic acid (4-methyl-benzyl)-indan-2-yl-amide]
COc1ccc2ccccc2c1C(=O)N(Cc1ccccc1C)C1Cc2ccccc2C1 [compound 224, 2-Methoxy-naphthalene-1-carboxylic acid (2-methyl-benzyl)-indan-2-yl-amide]
COc1ccc2ccccc2c1C(=O)N(Cc1ccc2c(c1)OCO2)C1Cc2ccccc2C1 [compound 228, 2-Methoxy-naphthalene-1-carboxylic acidbenzo[1,3]dioxol-5-ylmethyl-indan-2-yl-amide]
Cc1cccc(CN(C(=O)c2c(C)ccc3ccccc23)C2Cc3ccccc3C2)c1 [compound 230, 2-Methyl-naphthalene-1-carboxylic acid (3-methyl-benzyl)-indan-2-yl-amide]
Cc1ccc2ccccc2c1C(=O)N(CCc1ccccc1)C1Cc2ccccc2C1 [compound 235, 2-Methyl-naphthalene-1-carboxylic acid indan-2-yl-phenethyl-amide]
O=C(c1c(O)ccc2ccccc12)N(Cc1ccccc1F)C1Cc2ccccc2C1 [compound 237, 2-Hydroxy-naphthalene-1-carboxylic acid (2-fluoro-benzyl)-indan-2-yl-amide]
Cc1ccc(CN(C(=O)c2c(O)ccc3ccccc23)C2Cc3ccccc3C2)cc1 [compound 238, 2-Hydroxy-naphthalene-1-carboxylic acid (4-methyl-benzyl)-indan-2-yl-amide]
O=C(c1c(-c2ccccc2)ccc2ccccc12)N(Cc1ccccc1F)C1Cc2ccccc2C1 [compound 239, 2-Phenyl-naphthalene-1-carboxylic acid (2-fluoro-benzyl)-indan-2-yl-amide]
Cc1ccc(CN(C(=O)c2c(-c3ccccc3)ccc3ccccc23)C2Cc3ccccc3C2)cc1 [compound 240, 2-Phenyl-naphthalene 1-carboxylic acid (4-methyl-benzyl)-indan-2-yl-amide]
